PubChem BioAssay AID192 (DTP/NCI, 2004)
Values joined by “and” are separate entries in the source; they are usually repeats but may differ in a detail not shown here. Equal entries are not always repeated. Toxic doses and inconclusive results are not listed. How the source made its calls: active means survival T/C of 150% or more; inactive means T/C below 125% in these data.

Test system: BDF1 mice, B16 melanoma ip, median survival T/C
Assay: NCI In Vivo Anticancer Drug Screen. Data for tumor model B16 Melanoma (intraperitoneal) in B6D2F1 (BDF1) mice
Conditions: endpoint: median survival time, higher = longer survival
Procedure, shortened: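 Read-out: survival or tumor size, given as treated/control ratio. Controls received vehicle only; animals bore transplantable tumors.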

[1] = dose: 12.5 mg/kg/injection, schedule: Q04DX003 (ip), vehicle: saline with Tween-80
[2] = dose: 25.0 mg/kg/injection, schedule: Q04DX003 (ip), vehicle: saline with Tween-80
[3] = dose: 25.0 mg/kg/injection, schedule: Q01DX009 (ip), vehicle: saline
[4] = dose: 50.0 mg/kg/injection, schedule: Q01DX009 (ip), vehicle: saline
[5] = dose: 12.5 mg/kg/injection, schedule: Q01DX009 (ip), vehicle: saline
[6] = dose: 12.5 mg/kg/injection, schedule: Q01DX009 (ip), vehicle: Klucel (hydroxypropylcellulose) (HPC)
[7] = dose: 25.0 mg/kg/injection, schedule: Q01DX009 (ip), vehicle: Klucel (hydroxypropylcellulose) (HPC)
[8] = dose: 50.0 mg/kg/injection, schedule: Q01DX009 (ip), vehicle: Klucel (hydroxypropylcellulose) (HPC)
[9] = dose: 100.0 mg/kg/injection, schedule: Q01DX009 (ip), vehicle: Klucel (hydroxypropylcellulose) (HPC)
[10] = dose: 200.0 mg/kg/injection, schedule: Q01DX009 (ip), vehicle: Klucel (hydroxypropylcellulose) (HPC)
[11] = dose: 400.0 mg/kg/injection, schedule: Q01DX009 (ip), vehicle: Klucel (hydroxypropylcellulose) (HPC)
[12] = dose: 100.0 mg/kg/injection, schedule: Q04DX003 (ip), vehicle: saline with Tween-80
[13] = dose: 200.0 mg/kg/injection, schedule: Q04DX003 (ip), vehicle: saline with Tween-80
[14] = dose: 12.5 mg/kg/injection, schedule: Q04DX003 (ip), vehicle: Klucel (hydroxypropylcellulose) (HPC)
[15] = dose: 25.0 mg/kg/injection, schedule: Q04DX003 (ip), vehicle: Klucel (hydroxypropylcellulose) (HPC)
[16] = dose: 50.0 mg/kg/injection, schedule: Q04DX003 (ip), vehicle: Klucel (hydroxypropylcellulose) (HPC)

Measured: T/C

O=C(CCCN1CCC(O)(c2cccc(C(F)(F)F)c2)CC1)c1ccc(F)cc1
inactive: dose: 0.04 mg/kg/injection, schedule: Q01DX009 (ip), vehicle: Klucel (hydroxypropylcellulose) (HPC) 93 % of control | dose: 0.19 mg/kg/injection, schedule: Q01DX009 (ip), vehicle: Klucel (hydroxypropylcellulose) (HPC) 101 % of control | dose: 0.39 mg/kg/injection, schedule: Q01DX009 (ip), vehicle: Klucel (hydroxypropylcellulose) (HPC) 112 % of control | dose: 0.78 mg/kg/injection, schedule: Q01DX009 (ip), vehicle: Klucel (hydroxypropylcellulose) (HPC) 105 % of control | dose: 4.0 mg/kg/injection, schedule: Q01DX009 (ip), vehicle: Klucel (hydroxypropylcellulose) (HPC) 95 % of control | dose: 8.0 mg/kg/injection, schedule: Q01DX009 (ip), vehicle: Klucel (hydroxypropylcellulose) (HPC) 98 % of control

CC(=O)OC(CC(O)(C(F)(F)F)C(F)(F)F)C(C)(C)C (stereo not drawn)
inactive: dose: 12.5 mg/kg/injection, schedule: Q01DX009 (ip), vehicle: saline with Tween-80 120 % of control | [1] 105 % of control | dose: 25.0 mg/kg/injection, schedule: Q01DX009 (ip), vehicle: saline with Tween-80 117 % of control | [2] 105 % of control | dose: 50.0 mg/kg/injection, schedule: Q01DX009 (ip), vehicle: saline with Tween-80 97 % of control | dose: 50.0 mg/kg/injection, schedule: Q04DX003 (ip), vehicle: saline with Tween-80 117 % of control

CN1CCC(=C2c3ccccc3C=Cc3ccccc32)CC1
inactive: dose: 3.12 mg/kg/injection, schedule: Q01DX009 (ip), vehicle: saline 110 % of control | dose: 6.25 mg/kg/injection, schedule: Q01DX009 (ip), vehicle: saline 102 % of control | [3] 105 % of control | [4] 105 % of control

CNc1n[n+](-c2ccccc2)no1
inactive: [5] 119 % of control | [3] 124 % of control

O=S1(=O)C=CCCC=C1
inactive: dose: 6.25 mg/kg/injection, schedule: Q01DX009 (ip), vehicle: Klucel (hydroxypropylcellulose) (HPC) 102 % of control | [6] 98 % of control | [7] 95 % of control | [8] 98 % of control and 102 % of control

CCCCCCCCCCCCSCCNC(=O)CCl
inactive: [9] 112 % of control | [10] 100 % of control | [11] 96 % of control

O=C(OCc1ccccc1)C(Cl)(Cl)Cl
inactive: [12] 105 % of control | [13] 100 % of control | dose: 400.0 mg/kg/injection, schedule: Q04DX003 (ip), vehicle: saline with Tween-80 102 % of control

N#Cc1nc2ccccc2nc1C#N
inactive: [6] 110 % of control | [14] 97 % of control | [15] 102 % of control | [16] 95 % of control

COC(=O)C(=O)[C@@H](O)[C@H](O)[C@@H](O)CO
inactive: dose: 100.0 mg/kg/injection, schedule: Q04DX003 (ip), vehicle: Klucel (hydroxypropylcellulose) (HPC) 94 % of control | dose: 200.0 mg/kg/injection, schedule: Q04DX003 (ip), vehicle: Klucel (hydroxypropylcellulose) (HPC) 94 % of control | dose: 400.0 mg/kg/injection, schedule: Q04DX003 (ip), vehicle: Klucel (hydroxypropylcellulose) (HPC) 100 % of control

COc1cc(O)c2c(O)c3c(c4c2c1[C@]1(C4)C(C)=CCCC1(C)C)[C@H](O)[C@@]1(O)CC(=O)C(C(N)=O)=C(O)[C@@]1(O)C3=O
inactive: dose: 6.0 mg/kg/injection, schedule: Q01DX009 (ip), vehicle: saline with Tween-80 97 % of control | dose: 6.25 mg/kg/injection, schedule: Q04DX003 (ip), vehicle: saline with Tween-80 112 % of control | [1] 116 % of control | [2] 121 % of control

CCCCCCCC(=O)CCCC
inactive: [9] 106 % of control | [10] 106 % of control | [11] 94 % of control

O=C(O)c1c(-c2ccccc2)[nH]c2cc(Cl)ccc2c1=O
inactive: [5] 100 % of control | [3] 102 % of control | [4] 102 % of control | [12] 109 % of control | dose: 200.0 mg/kg/injection, schedule: Q01DX005 (ip), vehicle: saline 95 % of control | [13] 102 % of control

C=CCOCC(O)CN(CCC(C)C)CCC(C)C (stereo not drawn)
inactive: [14] 91 % of control | [15] 91 % of control | [16] 95 % of control

CN1CCN(CCNc2ccc(CO)c3sc4ccccc4c(=O)c23)CC1
inactive: [7] 110 % of control | [8] 116 % of control
